This is an account of results in patent US8492559B2, “Substituted indole compounds” (Gruenenthal GmbH, priority 2009, dated 2013).

For the assay, the target named is T1, B1R receptor of the rat (rB1R) (Rattus norvegicus, UniProt P97583).
T1 construct: expressed in transfected cells; host or cells: CHO K1 cells
T1 sequence (P97583 1-337): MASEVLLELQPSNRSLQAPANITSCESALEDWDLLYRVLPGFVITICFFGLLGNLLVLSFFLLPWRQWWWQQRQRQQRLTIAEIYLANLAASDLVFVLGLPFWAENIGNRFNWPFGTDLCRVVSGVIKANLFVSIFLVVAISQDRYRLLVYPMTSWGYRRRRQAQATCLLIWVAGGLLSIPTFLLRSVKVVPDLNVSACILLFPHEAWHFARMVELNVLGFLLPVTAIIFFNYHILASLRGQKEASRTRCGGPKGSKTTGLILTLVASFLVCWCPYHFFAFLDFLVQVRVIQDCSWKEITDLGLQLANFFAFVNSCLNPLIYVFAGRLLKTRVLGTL
The assay is described as follows: Functional investigation on the bradykinin 1 receptor (B1R), FLIPR Ca2+ assay, rB1R cells. In kind it is cell-based. The note with it: CHO-K1, 10 μM test substance; CHO K1 cells with rat B1R; agonist Des-Arg9 bradykinin; % of maximum achievable inhibition; read-out: B1R antagonism, rat [10 μM] % inhibition. In short, it runs like this:
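Ca2+ influx is measured as peak Fluo-4 fluorescence in a FLIPR protocol with two substance additions, following Lys-Des-[MUT] bradykinin (0.5 nM) or Des-[MUT] bradykinin (100 nM) challenge. Varying antagonist concentrations give % inhibition relative to maximum achievable and an IC50. Determinations in duplicate or triplicate, repeated independently (N>=2).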
Broadly, the inhibition is the share of the control response that was lost under treatment. As to `CN(CCC1CCC(c2ccccc2)(N(C)C)CC1)C(=O)CCn1ccc2ccc(N3Cc4cccc(Cl)c4C3=O)cc21` (stereo not shown) [G_CC-127, 3-[6-(4-Chloro-3-oxo-1,2-dihydro-isoindol-2-yl)-1H-indol-1-yl]-N-[2-(4-dimethylamino-4-phenyl-cyclohexyl)-ethyl]-N-methyl-propionamide], the inhibition at 10 µM was 63%.

With `CN1CCN(C2(c3cccc(F)c3)CCN(C(=O)Cn3ccc4ccc(N5Cc6cccc(Cl)c6C5=O)cc43)CC2)CC1` [G_CC-128, 7-Chloro-2-[1-[2-[4-(3-fluorophenyl)-4-(4-methyl-piperazin-1-yl)-piperidin-1-yl]-2-oxo-ethyl]-1H-indol-6-yl]-2,3-dihydro-isoindol-1-one], the inhibition at 10 µM is 61%.

Consider `CN(CCCN1CCN(c2ccncc2)CC1)C(=O)Cn1ccc2ccc(N3Cc4cccc(Cl)c4C3=O)cc21` [G_CC-138, 2-[6-(4-Chloro-3-oxo-1,2-dihydro-isoindol-2-yl)-1H-indol-1-yl]-N-methyl-N-[3-(4-pyridin-4-yl-piperazin-1-yl)-propyl]-acetamide], for which the inhibition at 10 µM turned out to be 52%.

Turning to `COc1cc(C)c(S(=O)(=O)Nc2cccc3ccn(CC(=O)N4CCN(C(=O)c5cccnc5)CC4)c23)c(C)c1` [G_CC-139, 4-Methoxy-2,6-dimethyl-N-[1-[2-oxo-2-[4-(pyridin-3-carbonyl)-piperazin-1-yl]-ethyl]-1H-indol-7-yl]-benzenesulfonic acid amide], the inhibition at 10 µM turned out to be 50%.
